Measurements as given in patent US12251458B1, “Anti-aging preparation for skin and application thereof” (South China Normal University, priority 2023, dated 2025).

Columns and labels:
[1] = tested on: dermal thickness in skin; experiment: Dermal thickness in treated back skin of mice (HE staining); assay type: in vivo, C57BL/6 mice
Description: (§1) Sodium 4-[(1E)-2-[[(4-chlorophenyl)methyl]sulfonyl]alkyne]-benzoate was dissolved in water to prepare an aqueous solution of sodium 4-[(1E)-2-[[(4-chlorophenyl)methyl]sulfonyl]alkyne]-benzoate (i.e., an anti-aging preparation for skin). Six healthy C57BL/6 mice aged 6-8 weeks with similar body sizes were selected, and the hair on the backs of the mice was removed gently and harmlessly to expose a similar area of skin on the back of each mouse. The six mice were divided into two groups equally. The same volume of pure water and aqueous solutions containing 0.5 of sodium 4-[(1E)-2-[[(4-chlorophenyl)methyl]sulfonyl]alkyne]-benzoate were applied, respectively, to the hair-removed skin on the backs of the mice once a day for 30 consecutive days.
Experimental method: after continuously applying an aqueous solution containing 0.5 μM of sodium 4-[(1E)-2-[[(4-chlorophenyl)methyl]sulfonyl]alkyne]-benzoate or pure water as a blank control to the backs of mice for 30 days, the mice were euthanized for cutting the skin from the treated areas, and hematoxylin-eosin (HE) staining method was used for detecting the dermal thickness in the skin. Specifically, the tissues were fixed, dehydrated with a sucrose solution, embedded in OCT, sliced, stained with hematoxylin, counterstained blue with tap water, stained with eosin, dehydrated and cleared, and then mounted.

[2] = tested on: collagen fiber content in skin; experiment: Collagen fiber content in treated back skin of mice (Masson staining); assay type: in vivo, C57BL/6 mice
Description: as §1
Experimental method: after continuously applying an aqueous solution containing 0.5 μM of sodium 4-[(1E)-2-[[(4-chlorophenyl)methyl]sulfonyl]alkyne]-benzoate or pure water as a blank control to the backs of mice for 30 days, the mice were euthanized for cutting the skin from the treated areas, and the Masson staining method was used for detecting the collagen fiber content in the skin. […]

[3] = tested on: COL1A2; experiment: COL1A2 expression in mouse skin fibroblasts by fluorescent quantitative PCR; assay type: cell-based, C57BL/6 mice; conditions: for expression of COL1A2 in the fibroblasts relative to blank control group: mouse skin fibroblasts
Source text: (§2) Experimental method: skin tissues were taken from the backs of newborn C57BL/6 mice, and fibroblasts obtained from mice were isolated and purified. […] The third-generation of fibroblasts were taken for experiments.
Experimental method: the COL1A2 level was detected using fluorescent quantitative polymerase chain reaction (PCR) method. The experiment was divided into two major groups: a blank control group and a sodium 4-[(1E)-2-[[(4-chlorophenyl)methyl]sulfonyl]alkyne]-benzoate treatment group. In the blank control group, the fibroblasts were cultured in a normal medium; and in the sodium 4-[(1E)-2-[[(4-chlorophenyl)methyl]sulfonyl]alkyne]-benzoate treatment group, the fibroblasts were treated with five media containing different concentrations (0.1 μM, […], 1 μM, 3 μM, and 6 μM) of sodium 4-[(1E)-2-[[(4-chlorophenyl)methyl]sulfonyl]alkyne]-benzoate (i.e., normal medium added with sodium 4-[(1E)-2-[[(4-chlorophenyl)methyl]sulfonyl]alkyne]-benzoate at the aforementioned concentrations) for 24 h. The specific process was as follows. The third-generation of fibroblasts was uniformly inoculated into a six-well plate. In the blank control group, the fibroblasts were cultured in the normal medium, and in the sodium 4-[(1E)-2-[[(4-chlorophenyl)methyl]sulfonyl]alkyne]-benzoate treatment group, the fibroblasts were cultured in media containing sodium 4-[(1E)-2-[[(4-chlorophenyl)methyl]sulfonyl]alkyne]-benzoate at the corresponding concentrations. After 24 h of culture, total RNA was extracted from the fibroblasts and subjected to reverse transcription to obtain complementary deoxyribonucleic acid (cDNA), which was then subjected to fluorescent quantitative PCR. After the end of reaction, an amplification curve and a melting curve of the fluorescent quantitative PCR were confirmed, with glyceraldehyde-3-phosphate dehydrogenase (GAPDH) as an internal reference gene. The results were analyzed using the internationally accepted 2^−ΔΔCt method.
Total RNA of fibroblasts was extracted using standard laboratory RNA extraction method and stored at −80° C. for later use. The extracted total RNA of fibroblasts was used as a template to synthesize cDNA by using the standard laboratory method, and the synthesized cDNA was stored at −20° C. for later use.
Fluorescent quantitative PCR system: 10 μL of qPCR SYBR Green Master Mix, 2 μL of 2 μM upstream primer, 2 μL of 2 μM downstream primer, and 1000 ng of cDNA template, a total volume of 20 μL by supplementing with diethyl pyrocarbonate (DEPC)-treated water.
Reaction conditions: pre-denaturation at 95° C. for 5 min, followed by 40 cycles of 10 sec at 95° C., 20 sec at 52.9° C., and 20 sec at 72° C. After the end of reaction, the melting curve was analyzed.
Experimental method: the COL1A2 level was detected using fluorescent quantitative PCR method. The experiment was divided into two major groups: a blank control group and a sodium 4-[(1E)-2-[[(4-chlorophenyl)methyl]sulfonyl]alkyne]-benzoate treatment group. In the blank control group, the fibroblasts were cultured in a normal medium; and in the sodium 4-[(1E)-2-[[(4-chlorophenyl)methyl]sulfonyl]alkyne]-benzoate treatment group, the fibroblasts were cultured in a medium containing 0.5 μM of sodium 4-[(1E)-2-[[(4-chlorophenyl)methyl]sulfonyl]alkyne]-benzoate, with incubation times of 24 h, 48 h, and 72 h. The specific process was as follows. The third-generation of fibroblasts was uniformly inoculated into a six-well plate. In the blank control group, the fibroblasts were cultured in a normal medium, and in the sodium 4-[(1E)-2-[[(4-chlorophenyl)methyl]sulfonyl]alkyne]-benzoate treatment group, the fibroblasts were cultured in a medium containing 0.5 μM of sodium 4-[(1E)-2-[[(4-chlorophenyl)methyl]sulfonyl]alkyne]-benzoate (i.e., normal medium containing 0.5μ M of sodium 4-[(1E)-2-[[(4-chlorophenyl)methyl]sulfonyl]alkyne]-benzoate). […]

[4] = tested on: COL1A2; experiment: COL1A2 mRNA level in treated back skin of mice (fluorescent quantitative PCR); assay type: in vivo, C57BL/6 mice; conditions: aqueous solution 0.5 μM applied to hair-removed back skin once a day for 30 days, P=0.0178
Description: as §1, with “The same volume of pure water and aqueous solutions containing 0.5 of sodium 4-[(1E)-2-[[(4-chlorophenyl)methyl]sulfonyl]alkyne]-benzoate were applied, respectively, to the hair-removed skin on the backs of the mice once a day for 30 consecutive days.” left out
(§3) Experimental method: after continuously applying the same volume of aqueous solutions containing 0.5 μM of sodium 4-[(1E)-2-[[(4-chlorophenyl)methyl]sulfonyl]alkyne]-benzoate or pure water as a blank control to the backs of mice for 30 days, the mice were euthanized for cutting the skin from the treated areas. The Westernblot method was employed to detect the protein level of COL1A2, and the fluorescent quantitative PCR method was employed to detect the mRNA level of COL1A2.
Fluorescence quantitative PCR experiment was performed specifically as follows. Total RNA was extracted from skin tissues, and subjected to reverse transcription to obtain cDNA, which was then subjected to fluorescence quantitative PCR. After the end of reaction, an amplification curve and a melting curve of the fluorescent quantitative PCR were confirmed, with GAPDH as an internal reference gene. […]

[5] = tested on: MMP-13; experiment: MMP-13 mRNA level in treated back skin of mice (fluorescent quantitative PCR); assay type: in vivo, C57BL/6 mice; conditions: aqueous solution 0.5 M (so in the source) applied to hair-removed back skin once a day for 30 days, P=0.0171
Description: as §1, with “The same volume of pure water and aqueous solutions containing 0.5 of sodium 4-[(1E)-2-[[(4-chlorophenyl)methyl]sulfonyl]alkyne]-benzoate were applied, respectively, to the hair-removed skin on the backs of the mice once a day for 30 consecutive days.” left out
Experimental method: after continuously applying an aqueous solution containing 0.5 M of sodium 4-[(1E)-2-[[(4-chlorophenyl)methyl]sulfonyl]alkyne]-benzoate or pure water as a blank control to the backs of mice for 30 days, the mice were euthanized for cutting the skin from the treated areas, and the fluorescent quantitative PCR method was used for detecting the mRNA level of MMP-13 in skin tissue. Specifically, total RNA was extracted from skin tissues, and subjected to reverse transcription to obtain cDNA, which was then subjected to fluorescence quantitative PCR. After the end of reaction, an amplification curve and a melting curve of the fluorescent quantitative PCR were confirmed, with GAPDH as an internal reference gene. The results were analyzed using the internationally accepted 2^−ΔΔCt method. […]

[6] = tested on: COL1A2; experiment: COL1A2 protein level in treated back skin of mice (Westernblot); assay type: in vivo, C57BL/6 mice; conditions: aqueous solution 0.5 μM applied to hair-removed back skin once a day for 30 days, P=0.0378
Description: as §1, with “The same volume of pure water and aqueous solutions containing 0.5 of sodium 4-[(1E)-2-[[(4-chlorophenyl)methyl]sulfonyl]alkyne]-benzoate were applied, respectively, to the hair-removed skin on the backs of the mice once a day for 30 consecutive days.” left out
as §3
The specific process for the Westernblot experiment was as follows. […] After fluorescent secondary antibodies were incubated, the samples were visualized using an infrared fluorescence scanning imaging system. […]

[7] = tested on: fibroblasts; experiment: Cell viability of fibroblasts after administration (status photographed under a microscope); assay type: cell-based, C57BL/6 mice; conditions: 0.5 μM, 24 h and 48 h
Description: as §2
Experimental method: the third-generation of fibroblasts was uniformly inoculated into a six-well plate. In the blank control group, the fibroblasts were cultured in a normal medium, and in the sodium 4-[(1E)-2-[[(4-chlorophenyl)methyl]sulfonyl]alkyne]-benzoate treatment group, the fibroblasts were cultured in a medium containing 0.5 μM of sodium 4-[(1E)-2-[[(4-chlorophenyl)methyl]sulfonyl]alkyne]-benzoate (i.e., normal medium containing 0.5 μM of sodium 4-[(1E)-2-[[(4-chlorophenyl)methyl]sulfonyl]alkyne]-benzoate). After culturing for 24 h and 48 h, respectively, the status of fibroblasts was photographed under a microscope.

[8] = same effect verification as Examples 1 and 2

Compound | increasing the dermal thickness in the skin, compared with the sodium salt [1, 8] | increasing the collagen fiber content in the skin, compared with the sodium salt [2, 8] | increasing the expression of type I collagen (COL1A2) in cells, compared with the sodium salt [3, 8] | mRNA level of COL1A2 in skin, increase compared to pure water blank control group [4] [times] | mRNA level of MMP-13 in skin, decrease compared to pure water blank control group [5] [times] | protein level of COL1A2 in skin, increase compared to pure water blank control group [6] [times] | viability / status of fibroblasts [7] | dermal thickness in the skin, increase compared to pure water blank control group ([1]; aqueous solution 0.5 μM applied to hair-removed back skin once a day for 30 days, P=0.0004) [times] | collagen fiber content in the skin, increase compared to pure water blank control group ([2]; aqueous solution 0.5 μM applied to hair-removed back skin once a day for 30 days, P=0.0010) [times] | expression of COL1A2 in the fibroblasts relative to blank control group ([3]; 0.5 μM, 24 h, P=0.0003) [times] | expression of COL1A2 in fibroblasts with extension of incubation time ([3]; 0.5 μM, incubation time from 24 h to 72 h) | expression of COL1A2 in fibroblasts compared to the blank control group ([3]; 0.5 μM, incubation time of 72 h) | expression of COL1A2 in the fibroblasts relative to blank control group ([3]; 1 μM, 24 h, P<0.0001) [times] | expression of COL1A2 in the fibroblasts ([3]; any other concentrations (0.1 μM, 3 μM, 6 μM), 24 h)
O=C(O)c1ccc(/C=C/S(=O)(=O)Cc2ccc(Cl)cc2)cc1 | equivalent effects | equivalent effects | equivalent effects | – | – | – | – | – | – | – | – | – | – | –
O=C([O-])c1ccc(/C=C/S(=O)(=O)Cc2ccc(Cl)cc2)cc1.[Na+] | – | – | – | 2.681 | 0.5124 | 4.024 | no adverse effects on viability of fibroblasts | 2.9101 | 3.3904 | 1.613 | decreases | no difference | 1.173 | cannot increase the expression of COL1A2
